Laboratory results reported in patent US20120009674A1, “Use of a GSK-3 Inhibitor to Maintain Potency of Cultured Cells” (ABT Holding Company, priority 2005, published 2012).

What was measured:
CDK2-cyclin A = CDK2-cyclin A (Homo sapiens, UniProt P24941); details: at 10 μM; cited from earlier work
[1] = tested on: mouse mesodermal stem cell line; details: Chen, S., et al. (2003); cited from earlier work
[2] = tested on: mouse embryonic stem (ES) cell; details: mouse ES cells; Oct-3a, Rex-1 and Nanog expression; cited from earlier work
[3] = Stability of BIO in culture, expansion media without cells (mass spectroscopy); type: physicochemical; details: absence of cells, 72-hour period, 1 μM BIO, 37° C., 18% O2, 5% CO2, expansion media
Oct-3A = test: Western blot of Oct-3A protein in BIO treated MAPCs; type: cell-based, human; details: BIO treated vs untreated MAPCs from the same donor, FIG. 3
[4] = tested on: human embryonic stem (ES) cell; details: human ES cells; Oct-3a, Rex-1 and Nanog expression; cited from earlier work

In the case of `CCCC(=O)Nc1n[nH]c2ncc(-c3ccccc3F)cc12` [Pyrazolopyridine 18], the “Inhibits CDK2-cyclin A” value (CDK2-cyclin A) is given as “A (95% at 10 μM)”.

In the case of `c1nc2nc(Nc3ccc(N4CCOCC4)cc3)nc(NC3CCCCC3)c2[nH]1` [reversine], the “de-differentiation of committed myoblast” value [1] is given as “acted to “de-differentiate” the cell line from a committed myoblast, back to the multipotent precursor”.

For `CN(C)CCC(=O)Nc1n[nH]c2nnc(-c3ccccc3)cc12` [Pyrazolopyridine 9], the “Inhibits CDK2-cyclin A” value (CDK2-cyclin A) is given as “A (90% at 10 μM)”.

In the case of `O=C1Nc2cc(Br)ccc2/C1=C1/Nc2ccccc2/C1=N\O` [BIO, 6-bromoindirubin-3′-oxime], the “maintenance of ES cultures in an undifferentiated pluripotent state” value [2] is given as “able to substitute for the addition of feeder cultures or addition of exogenous cytokines in maintaining the ES cultures in an undifferentiated pluripotent state”, the “BIO stable (native BIO remaining)” value [3] is given as “approximately 95%” and the “Oct-3A protein level (Western blot)” value (Oct-3A) is given as “increases or protects the amount of detectable Oct-3A”. For the same compound, the “maintenance of ES cultures in an undifferentiated pluripotent state” value [4] was “able to substitute for the addition of feeder cultures or addition of exogenous cytokines in maintaining the ES cultures in an undifferentiated pluripotent state”.
